Data set [1] has as its system crop plants, such as, for example, maize. As to the kind of experiment: Pre-emergence test, crop plant tolerance. Conditions: rated after three weeks. The data set is classed as in vivo. The text has this:
(§1) Solvent: 5 parts by weight of acetone
(§2) Emulsifier: 1 part by weight of alkylaryl polyglycol ether
Seeds of the test plants are sown in normal soil.
(§3) After three weeks, the degree of damage to the plants is rated in % damage in comparison to the development of the untreated control.

Data set [2] in a line: logP by HPLC, reverse-phase column (C 18), acidic range. The data set is classed as physicochemical. As to the method:
Temperature: 43° C. (a) Mobile phases for the determination in the acidic range: 0.1% aqueous phosphoric acid, acetonitrile; linear gradient from 10% acetonitrile to 90% acetonitrile—the corresponding data in Table 1 are labelled^a). […] Temperature: 43° C. (a) Mobile phases for the determination in the acidic range: 0.1% aqueous phosphoric acid, acetonitrile; linear gradient from 10% acetonitrile to 90% acetonitrile—the corresponding data in Table 2 are labelled^a).

Data set [3] concerns weeds. As to the kind of experiment: Pre-emergence test, weeds. The data set is classed as in vivo. The following applies: soil sprayed, rated after three weeks. As to the method: Pre-emergence Test Solvent: 5 parts by weight of acetone Emulsifier: 1 part by weight of alkylaryl polyglycol ether To produce a suitable preparation of active compound, 1 part by weight of active compound is mixed with the stated amount of solvent, the stated amount of emulsifier is added and the concentrate is diluted with water to the desired concentration. Seeds of the test plants are sown in normal soil. After about 24 hours, the soil is sprayed with the preparation of active compound such that the particuiar amount of active compound desired is applied per unit area. The concentration of the spray liquor is chosen so that the particular amount of active compound desired is applied in 1000 litres of water per hectare. After three weeks, the degree of damage to the plants is rated in % damage in comparison to the development of the untreated control. The figures denote: 0%=no effect (like untreated control) 100%=total destruction

Data set [4] concerns weeds. The experiment in a line: Post-emergence test, weeds. The data set is classed as in vivo. Conditions: plants of 5 to 15 cm sprayed, rated after three weeks. As to the method:
as §1, §2
To produce a suitable preparation of active compound, 1 part by weight of active compound is mixed with the stated amount of solvent, the stated amount of emulsifier is added and the concentrate is diluted with water to the desired concentration.
Test plants of a height of 5 to 15 cm are sprayed with the preparation of active compound such that the particular amounts of active compound desired are applied per unit area. The concentration of the spray liquor is chosen so that the particular amounts of active compound are applied in 1000 l of water/ha.
as §3
0%=no effect (like untreated control)

Setting [5] is: a) acidic range: 0.1% aqueous phosphoric acid, acetonitrile, 43° C., Table 1.

Where two headings read alike, the source gives them in different places.

For the molecule `CCOc1nn(Cc2cc(C(F)(F)F)ccc2C(=O)C(C#N)C(=O)C2CC2)c(=O)n1C1CC1` (stereo not drawn) [Example 1, 3-cyclopropyl-2-{2-[4-(cyclopropyl-3-ethoxy-5-oxo-4,5-dihydro-1H-1,2,4-triazol-1-yl)-methyl]4-trifluoromethyl-benzoyl}-3-oxo-propanenitrile], the “tolerated by crop plants” value in data set [1] is given as “tolerated well”. Also, in data set [2] (reverse-phase HPLC column (C 18), determined at pH=2), the chromatographic logP (commonly a lipophilicity value derived from retention on a column) is 3.35. For the same molecule, the activity against weeds entry in the data set with weeds [3] and with weeds [4] was “strong activity” each time.
Take `CSc1nn(Cc2cc(C(F)(F)F)ccc2C(=O)C(C#N)C(=O)C2CC2)c(=O)n1C1CC1` (stereo not drawn) [Example 2]: the “tolerated by crop plants” value in data set [1] was “tolerated well”. In addition, the logP result in data set [2] (setting [5]) is listed as “(IA) logP = 2.92^a)”. Also, the activity against weeds result in the data set on weeds [3] and in the data set on weeds [4] was “strong activity” in each case.
With `CCOc1nn(Cc2cc(C(F)(F)F)ccc2C(=O)C(C#N)C(=O)C2CC2)c(=O)n1C` (stereo not drawn) [Example 3], the “tolerated by crop plants” value in data set [1] is “tolerated well”. Also, in data set [2] (setting [5]), the logP result was “(IA) logP = 3.03^a)”. For the same molecule, the activity against weeds entry in the data set with weeds [3] and in the data set with weeds [4] was “strong activity” each time.
As to `CSc1nn(Cc2cc(Br)ccc2C(=O)C(C#N)C(=O)C2CC2)c(=O)n1C` (stereo not drawn) [Example 5], the “tolerated by crop plants” value in data set [1] was “tolerated well”. The logP result in data set [2] (setting [5]) is listed as “(IA) logP = 2.83^a)”. Moreover, the activity against weeds entry in the data set with weeds [3] and in the data set on weeds [4] was “strong activity” throughout.
Regarding `CCOc1nn(Cc2cc(Br)ccc2C(=O)C(C#N)C(=O)C2CC2)c(=O)n1C` (stereo not drawn) [Example 6], in data set [1], the “tolerated by crop plants” value was “tolerated well”. The logP entry in data set [2] (setting [5]) is given as “(IA) logP = 2.94^a)”. For the same molecule, the activity against weeds result in the data set on weeds [3] and in the data set on weeds [4] was “strong activity” throughout.
Turning to `CN(C)c1nn(Cc2cc(F)ccc2C(=O)C(C#N)C(=O)C2CC2)c(=O)n1C` (stereo not drawn) [Example 7], in data set [2], the logP entry was “(IA) logP = 2.28^a)”.
Take `COc1nn(Cc2cc(F)ccc2C(=O)C(C#N)C(=O)C2CC2)c(=O)n1C1CC1` (stereo not drawn) [Example 8]: the logP result in data set [2] is reported as “(IA) logP = 2.56^a)”.
With `CSc1nn(Cc2cc(S(C)(=O)=O)ccc2C(=O)C(C#N)C(=O)C2CC2)c(=O)n1C` (stereo not drawn) [Example 9], the logP entry in data set [2] is listed as “(IA) logP = 1.74^a)”.
On the same count and under the same terms, the same measure for `Cc1nn(Cc2cc(C(F)(F)F)ccc2C(=O)C(C#N)C(=O)C2CC2)c(=O)n1C` (stereo not drawn) [Example 10]: “(IA) logP = 2.35^a)”.
As to `CCOc1nn(Cc2cc(C(F)(F)F)ccc2C(=O)O)c(=O)n1C` [III-2, 5-ethoxy-4-methyl-2-(2-carboxy-5-trifluoromethyl-benzyl)-2,4-dihydro-3H-1,2,4-triazol-3-one], in data set [2] (reverse-phase HPLC column (C 18); a) acidic range, starting material of formula (III)), the chromatographic logP was 2.18.
Turning to `Cn1c(C(F)(F)F)nn(Cc2c(Cl)ccc(C(=O)O)c2Cl)c1=O` [III-3, 4-methyl-5-trifluoromethyl-2-(2,6-dichloro-3-carboxy-benzyl)-2,4-dihydro-3H-1,2,4-triazol-3-one], the melting point (as a rule, the temperature, or range, at which the solid turns liquid) is 207 °C.
Regarding `CCOn1c(CC)nn(Cc2cc(C(F)(F)F)ccc2C(=O)c2c(C(=O)OC)noc2C2CC2)c1=O` [IV-1, (5-cyclopropyl-3-methoxycarbonyl-isoxazol-4-yl)-[2-(4-ethoxy-3-ethyl-5-oxo-4,5-dihydro-[1,2,4]-triazol-1-yl-methyl)-4-trifluoromethyl-phenyl]-methanone], in data set [2] (reverse-phase HPLC column (C 18), determined at pH=2.3, starting material of formula (IV)), the chromatographic logP was 3.56.

The values above are taken from patent publication US6762152B1, “Substituted benzoyl ketones, methods for producing them and their use as herbicides” (Bayer Aktiengesellschaft, priority 1999, dated 2004).
